Test results: patent US20130315843A1, “COMPOSITION FOR REDUCTION OF TRPA1 AND TRPV1 SENSATIONS” (priority 2012, published 2013)
Like-named read-outs stand apart in the source and are kept apart here.

What was measured:
human TRPV1 = human TRPV1 (Homo sapiens, UniProt Q8NER1); test: FLIPR Ca2+ assay, reduction of L-Menthol activation of TRPV1; details: for Average Ca2+ Counts / % Reduction of L-Menthol TRPV1 Activation: antagonist 100 μM against 1 mM L-Menthol; for inhibition at 100 µM: read-out: % Reduction of L-Menthol TRPV1 Activation
Chain of human TRPV1 (Q8NER1 whole entry): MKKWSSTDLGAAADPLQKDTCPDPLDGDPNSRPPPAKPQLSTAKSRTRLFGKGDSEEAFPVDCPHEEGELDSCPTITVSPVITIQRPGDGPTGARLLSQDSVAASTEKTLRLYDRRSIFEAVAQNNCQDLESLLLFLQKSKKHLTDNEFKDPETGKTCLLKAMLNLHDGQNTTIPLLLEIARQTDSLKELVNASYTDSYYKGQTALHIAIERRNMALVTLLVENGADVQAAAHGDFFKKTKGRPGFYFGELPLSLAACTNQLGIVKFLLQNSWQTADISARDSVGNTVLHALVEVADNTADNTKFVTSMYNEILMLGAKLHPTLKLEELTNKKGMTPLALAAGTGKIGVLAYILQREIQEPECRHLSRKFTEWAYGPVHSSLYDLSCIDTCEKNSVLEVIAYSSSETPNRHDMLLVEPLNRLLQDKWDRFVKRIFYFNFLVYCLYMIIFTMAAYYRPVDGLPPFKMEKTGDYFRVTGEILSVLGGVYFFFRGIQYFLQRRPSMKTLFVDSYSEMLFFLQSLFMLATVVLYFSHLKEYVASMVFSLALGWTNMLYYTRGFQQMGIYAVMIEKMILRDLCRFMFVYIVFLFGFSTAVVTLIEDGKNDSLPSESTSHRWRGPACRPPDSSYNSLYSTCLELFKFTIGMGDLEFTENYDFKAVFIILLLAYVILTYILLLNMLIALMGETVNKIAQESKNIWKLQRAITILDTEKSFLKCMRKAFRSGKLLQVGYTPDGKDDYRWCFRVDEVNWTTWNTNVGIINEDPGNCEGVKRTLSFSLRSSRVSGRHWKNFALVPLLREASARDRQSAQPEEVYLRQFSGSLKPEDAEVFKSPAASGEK
Method: To determine whether TRPV1 was activated, the intracellular calcium ion (Ca^+2) levels from cells transfected with the TRPV1 receptor gene was measured. HEK-239 cells stably transfected with human TRPV1 were grown in 15 ml growth medium [high glucose DMEM (Dulbecco's Modification of Eagle's Medium) supplemented with 10% FBS (fetal bovine serum), 100 g/ml Penicillin/streptomycin, 100 g/ml G418] in a 75 Cm2 flask for 3 days at 33° C. in a mammalian cell culture incubator set at 5% CO2. Cells were detached with addition of 10 ml of PBS (phosphate buffered saline) by hand shaking gently. Cells were transferred to a 50 ml tube and centrifuged at 850 rpm for 3 minutes to remove PBS. After centrifugation, a pellet of cells formed in the bottom of the tube separating them from the supernatant solution. The supernatant was discarded and the cell pellet suspended in 1 ml of fresh growth medium to which 5 μl (12.5 g) of Fluo-4 AM (Molecular Probes, Inc., Eugene, Oreg.) calcium indicator was added and incubated for 30 minutes with gentle shaking.
The pelleted cells were re-suspended in 10 ml assay buffer and 90 μl aliquots (˜50,000 cells) per well delivered to a 96-well assay plate containing 10 μl of test compounds (1 mM in assay buffer, final concentration 100 μM) or buffer control and incubated at room temperature for 30 minutes. After 30 minutes, the plate was placed into a fluorometric imaging plate reader (FLIPR384 from Molecular Devices) and basal fluorescence recorded (excitation wave length 488 nm and emission wave length 510 nm). Then 20 μl of the compound being tested as a TRPV1 receptor activator was added and fluorescence recorded. […] It may be no difference (no effect), or negative (means antagonist or desensitizer) or positive (enhancer, also known as positive allosteric modulator). […] To determine if a compound was an antagonist or a desensitizer, the direct effect of a test compound was determined. For determining the direct effect of test compounds on TRPV1, 100 μl aliquots (˜50,000 cells) of cells prepared as described above were delivered to a 96-well assay plate and basal fluorescence recorded as noted above. Then 20 μl of the compound being tested as a TRPV1 receptor activator was added and fluorescence recorded. If any increase in fluorescence over background was noted, then the compound was considered an agonist. The agonist activity was expressed relative to that observed with a benchmark agonist such as 350 nM Capsaicin for TRPV1.
100 μM of antagonist was tested against 1 mM of L-Menthol to determine the level of reduced TRPV1 receptor activation by L-Menthol. Each antagonist compound was run with 1 mM of L-Menthol as a control and the antagonist activity of each compound was determined by comparing the Ca^2+ levels of the control with the antagonist compound being tested.

human TRPA1 = human TRPA1 (Homo sapiens, UniProt O75762); test: FLIPR Ca2+ assay, reduction of hydrogen peroxide activation of TRPA1; format: cell-based; design: expressed in transfected cells
Chain of human TRPA1 (O75762 whole entry): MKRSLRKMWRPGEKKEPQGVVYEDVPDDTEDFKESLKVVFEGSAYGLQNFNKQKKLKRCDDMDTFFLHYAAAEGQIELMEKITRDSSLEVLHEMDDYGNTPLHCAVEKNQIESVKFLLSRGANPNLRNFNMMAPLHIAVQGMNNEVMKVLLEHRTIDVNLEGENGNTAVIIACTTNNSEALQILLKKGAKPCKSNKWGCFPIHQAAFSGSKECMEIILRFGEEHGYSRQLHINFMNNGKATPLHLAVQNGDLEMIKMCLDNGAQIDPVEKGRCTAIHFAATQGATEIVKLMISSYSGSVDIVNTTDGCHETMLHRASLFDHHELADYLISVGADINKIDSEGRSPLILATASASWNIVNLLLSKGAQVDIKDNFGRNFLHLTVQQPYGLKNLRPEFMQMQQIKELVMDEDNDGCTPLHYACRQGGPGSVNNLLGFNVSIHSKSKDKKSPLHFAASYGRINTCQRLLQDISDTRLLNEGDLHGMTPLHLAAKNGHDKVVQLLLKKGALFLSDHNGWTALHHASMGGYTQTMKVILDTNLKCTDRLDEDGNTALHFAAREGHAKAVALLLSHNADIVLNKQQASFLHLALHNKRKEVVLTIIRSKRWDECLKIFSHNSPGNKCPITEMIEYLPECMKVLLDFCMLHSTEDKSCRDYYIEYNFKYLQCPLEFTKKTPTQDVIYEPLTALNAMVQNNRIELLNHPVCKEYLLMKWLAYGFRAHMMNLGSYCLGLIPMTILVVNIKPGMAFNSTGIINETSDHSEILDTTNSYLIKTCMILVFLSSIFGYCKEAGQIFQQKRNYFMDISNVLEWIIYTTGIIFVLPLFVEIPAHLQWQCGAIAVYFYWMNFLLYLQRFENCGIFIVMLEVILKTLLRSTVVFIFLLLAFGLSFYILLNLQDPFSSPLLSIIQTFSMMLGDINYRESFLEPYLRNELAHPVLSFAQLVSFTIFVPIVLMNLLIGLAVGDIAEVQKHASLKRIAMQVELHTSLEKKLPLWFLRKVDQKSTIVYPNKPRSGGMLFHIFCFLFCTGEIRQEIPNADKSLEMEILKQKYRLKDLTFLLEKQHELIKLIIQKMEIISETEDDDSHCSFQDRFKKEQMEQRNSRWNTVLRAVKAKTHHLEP
Method: After centrifugation, a pellet of cells was formed in the bottom of the tube separating them from the supernatant solution.
The pelleted cells were re-suspended in 10 ml assay buffer and 90 μl aliquots (˜50,000 cells) per well delivered to a 96-well assay plate containing 10 μl of test compounds ([…]) or buffer control and incubated at room temperature for 30 minutes.

[1] = compound 100 μM against 200 μM hydrogen peroxide, Sets 1-4
[2] = compound 100 μM against 200 μM hydrogen peroxide, Sets 1-4, read-out: % Reduction of Hydrogen Peroxide TRPA1 Activation
[3] = 100 μM antagonist vs 500 μM hydrogen peroxide
[4] = read-out: % Reduction of Hydrogen Peroxide TRPA1 Activation

Molecule	Average Ca2+ Counts (human TRPV1)	inhibition at 100 µM (human TRPV1)	Average Ca++ Counts (human TRPA1; [1])	inhibition at 100 µM (human TRPA1; [2])	Block of hydrogen peroxide activation of TRPA1 (human TRPA1; [3])	further results
CC(O)c1ccccc1 (racemic) [(+−)-1-phenylethanol]	1087.7 Counts	41.6%				
CC(C)=CCCC(C)CCO (racemic) [(+−)-beta;-citronellol]	1501.3 Counts					% Reduction of L-Menthol TRPV1 Activation (human TRPV1): 22.5%
CCCCCCCCCCO [1-decanol]	1175.7 Counts	37.5%				
COc1ccc(C)cc1C [2,4-dimethylanisole]	1255.3 Counts	33.9%				
COc1cccc(OC)c1O [2,6-dimethoxyphenol]	1365.0 Counts	28.8%				
CC(=O)c1cccn1C [2-acetyl-1-methylpyrrole]	1254.0 Counts	33.9%				
CCc1occc(=O)c1O [2-ethyl-3-hydroxy-4h-pyran-4-one]	1095.3 Counts	41.3%				
SCCc1cnccn1 [2-pyrazinylethanethiol]	992.0 Counts	46%	1987.5 Counts	81.2%		
CCC(C)C1CCCCC1=O (stereo not drawn) [2-sec.-butylcyclohexanone]	1352.3 Counts	29.4%				
CC(O)C(C)S (stereo not drawn) [3-mercapto-2-butanol]	1008.3 Counts	45.3%				
CCOc1ccc(C=O)cc1 [4-ethoxybenzaldehyde]	1200.0 Counts	36.4%				
COc1ccc(C(C)=O)cc1 [4′-methoxyacetophenone]	1162.0 Counts	38.2%				
CC(=O)OCC1=CCC2CC1C2(C)C (stereo not drawn) [6,6-dimethylbicyclo[3.1.1]hept-2-ene-2-methyl acetate]	1448.3 Counts					% Reduction of L-Menthol TRPV1 Activation (human TRPV1): 24.9%
O=C1O[C@H]([C@@H](O)CO)C([O-])=C1O.[Na+] [(+)-sodium 1-ascorbate]	2961.0 Counts					% Reduction of L-Menthol TRPV1 Activation (human TRPV1): 26.6%
C[C@@H](CO)c1ccccc1 [(r)-(+)-2-phenyl-1-propanol]	1414.0 Counts	26.5%				
CC(=O)OCC(C)(C)Cc1ccccc1 [alpha,alpha-dimethylhydrocinnamyl acetate]			3367.0 Counts	52.2%		
C=C(C)c1ccc(C)cc1 [alpha,p-dimethylstyrene]			3735.5 Counts			% Reduction of Hydrogen Peroxide TRPA1 Activation (human TRPA1; [1]): 57.2%
CCCCCO [amyl alcohol]			3149.0 Counts	55.3%	BLOCK ONLY H2O2/TRPA1	
C/C=C(\C)C(=O)OCc1ccccc1 [benzyl tiglate]			2385.0 Counts	59.4%	BLOCK ONLY H2O2/TRPA1	

Molecule	Average Ca2+ Counts (human TRPV1)	inhibition at 100 µM (human TRPV1)	Average Ca++ Counts (human TRPA1; [1])	inhibition at 100 µM (human TRPA1; [2])	Block of hydrogen peroxide activation of TRPA1 (human TRPA1; [3])	further results
CC=CC(=O)O [but-2-enoic acid]			5193.0 Counts	51%	BLOCK ONLY H2O2/TRPA1	
CCCCOC(=O)C(C)CC (stereo not drawn) [butyl 2-methylbutyrate]	1233.7 Counts	34.9%				
CCCCOC(=O)C(C)O (stereo not drawn) [butyl lactate]			5157.0 Counts	51.3%	BLOCK ONLY H2O2/TRPA1	
CCCC=O [butyraldehyde]			4725.5 Counts	55.4%	BLOCK ONLY H2O2/TRPA1	
Cc1ccc(C(C)C)cc1O [carvacrol]						Average Ca++ Counts (human TRPA1): 3464.5 Counts; inhibition at 100 µM (human TRPA1; [4]): 50.8%
C/C=C/C(=O)OCC/C=C\CC [crotonic acid cis-3-hexen-1-yl ester]	1150.0 Counts	38.7%				
CCOC(=O)C1OC1(C)c1ccccc1 (stereo not drawn) [empg]	1164.0 Counts					% Reduction of L-Menthol TRPV1 Activation (human TRPV1): 38.1%
CCC(C)(O)CCc1ccccc1 (stereo not drawn) [ethyl methyl beta-phenylethyl carbinol]			2253.5 Counts	68%	BLOCK ONLY H2O2/TRPA1	
CC12CCC(C1)C(C)(C)C2=O (stereo not drawn) [fenchone]			2761.5 Counts	60.8%	BLOCK ONLY H2O2/TRPA1	
[Cl][Fe]([Cl])[Cl] [ferric chloride]			3287.0 Counts		BLOCK ONLY H2O2/TRPA1	% Reduction of Hydrogen Peroxide TRPA1 Activation (human TRPA1; [1]): 53.3%
CCC1CCC(=O)O1 (stereo not drawn) [gamma-caprolactone]	1084.3 Counts	41.8%				
CC1=CCC(C(C)C)=CC1 [gamma-terpinene]			3124.0 Counts	55.6%	BLOCK ONLY H2O2/TRPA1	
CC(=O)C(=O)OCCC(C)C [isoamyl pyruvate]			2824.0 Counts	59.9%	BLOCK ONLY H2O2/TRPA1	
CC(C)COC(=O)C(C)C [isobutyl isobutyrate]			3383.0 Counts	52%	BLOCK ONLY H2O2/TRPA1	
CC(C)CCO [isopentyl alcohol]			3778.0 Counts	56.7%	BLOCK ONLY H2O2/TRPA1	
CCCCCC(=O)OC(C)C [isopropyl hexanoate]			2862.0 Counts	59.4%	BLOCK ONLY H2O2/TRPA1	
O=C(O)CC(O)C(=O)O (stereo not drawn) [malic acid]			5617.5 Counts	47%	BLOCK ONLY H2O2/TRPA1	
COC(=O)c1ccc(O)cc1 [methyl 4-hydroxybenzoate]			4904.5 Counts	53.7%	BLOCK ONLY H2O2/TRPA1	
CCCCCCCCCCCC(=O)OC [methyl laurate]	1199.7 Counts	36.4%				

Molecule	Average Ca2+ Counts (human TRPV1)	inhibition at 100 µM (human TRPV1)	Average Ca++ Counts (human TRPA1; [1])	inhibition at 100 µM (human TRPA1; [2])	Block of hydrogen peroxide activation of TRPA1 (human TRPA1; [3])	further results
CCCCC/C=C\C/C=C\CCCCCCCC(=O)OC [methyl linoleate]			3363.5 Counts	52.2%	BLOCK ONLY H2O2/TRPA1	
CCCCC/C=C/C(=O)OC [methyl trans-2-octenoate]	1538.7 Counts	20.7%				
COC(=O)c1ccccc1 [methylbenzoate]						Average Ca++ Counts (human TRPA1): 3817.0 Counts; Block of hydrogen peroxide activation of TRPA1 (human TRPA1): BLOCK ONLY H2O2/TRPA1; inhibition at 100 µM (human TRPA1; [4]): 56.2%
CCCCO [n-butyl alcohol]						% Reduction of Hydrogen Peroxide TRPA1 Activation (human TRPA1): 57.3%; Average Ca++ Counts (human TRPA1): 3009.0 Counts; Block of hydrogen peroxide activation of TRPA1 (human TRPA1): BLOCK ONLY H2O2/TRPA1
C/C=C(/C)C1CCC(C)(C)O1 (stereo not drawn) [ocimene quintoxide]	1236.3 Counts					% Reduction of L-Menthol TRPV1 Activation (human TRPV1): 34.7%
Cc1ccc(C(C)(C)O)cc1 [p-cymen-8-ol]						% Reduction of Hydrogen Peroxide TRPA1 Activation (human TRPA1): 50.6%; Average Ca++ Counts (human TRPA1): 3476.5 Counts; Block of hydrogen peroxide activation of TRPA1 (human TRPA1): BLOCK ONLY H2O2/TRPA1
OCc1ccccc1 [phenyl-methanol]			5244.5 Counts	50.5%	BLOCK ONLY H2O2/TRPA1	
CC(C)CC(=O)OCCc1ccccc1 [phenylethyl isovalerate]			3291.5 Counts	53.3%	BLOCK ONLY H2O2/TRPA1	
CCC(O)c1ccccc1 (stereo not drawn) [phenylpropanol (1-phenyl 1-propanol), 1-phenyl 1-propanol]	1218.3 Counts	35.6%				
c1ccc2ncccc2c1 [quinoline]			3440.0 Counts	51.2%	BLOCK ONLY H2O2/TRPA1	
O=C1O[C@H]([C@H](O)CO)C([O-])=C1O.[Na+] [sodium erythorbate]						% Reduction of Hydrogen Peroxide TRPA1 Activation (human TRPA1): 54.5%; Average Ca++ Counts (human TRPA1): 3204.5 Counts; Block of hydrogen peroxide activation of TRPA1 (human TRPA1): BLOCK ONLY H2O2/TRPA1
Cc1ccc(C(C)C)c(O)c1 [thymol]	1331.3 Counts	30.3%				
CCC/C=C/C=O [trans-2-Hexenal]						Block of hydrogen peroxide activation of TRPA1 (human TRPA1): BLOCK ONLY H2O2/TRPA1; inhibition at 400 µM (human TRPA1; [4]): 52%
CCC/C=C/C(OCC)OCC [trans-2-hexen-1-al diethyl acetal]	1169.0 Counts	37.9%				
NC(N)=O [urea]						% Reduction of Hydrogen Peroxide TRPA1 Activation (human TRPA1): 52.4%; Average Ca++ Counts (human TRPA1): 5045.5 Counts; Block of hydrogen peroxide activation of TRPA1 (human TRPA1): BLOCK ONLY H2O2/TRPA1
CCCCCCCCC1CCC(=O)O1 (stereo not drawn) [γ-Dodecalactone]						% Reduction of Hydrogen Peroxide TRPA1 Activation (human TRPA1): 51%; Block of hydrogen peroxide activation of TRPA1 (human TRPA1): BLOCK ONLY H2O2/TRPA1
CCCCCCC1(C)CCC(=O)O1 (stereo not drawn) [γ-Methyl Decalactone]					BLOCK ONLY H2O2/TRPA1	% Reduction of Hydrogen Peroxide TRPA1 Activation (human TRPA1; antagonist 100 μM against 200 μM hydrogen peroxide): 48%
d-(−)-lactic acid	1093.7 Counts					% Reduction of L-Menthol TRPV1 Activation (human TRPV1): 41.3%
desoxycholic acid						% Reduction of Hydrogen Peroxide TRPA1 Activation (human TRPA1): 56.6%; Average Ca++ Counts (human TRPA1): 3058.5 Counts; Block of hydrogen peroxide activation of TRPA1 (human TRPA1): BLOCK ONLY H2O2/TRPA1
